Patent publication US9409881B2, “Herbicidally active 6′-phenyl-2,2′-bipyridine-3-carboxylic acid derivatives” (BAYER CROPSCIENCE AG, priority 2012, dated 2016)

## COC(=O)c1cccnc1-c1cccc(-c2ccc(Cl)cc2)n1 [Chemical Example 2, Methyl 6′-(4-chlorophenyl)-2,2′-bipyridine-3-carboxylate]
  melting point: 120.5 °C

## O=C(O)c1cccnc1-c1cccc(-c2ccc(Cl)cc2)n1 [Chemical Example 3, 6′-(4-Chlorophenyl)-2,2′-bipyridine-3-carboxylic acid]
  melting point: 221 °C
